Measured values reported in article PMC6859963, “Fragment screening for a protein-protein interaction inhibitor to WDR5” (Structural Dynamics, 2019).
Structures can show the parent of a compound that is named as a salt.

Experiments:
WDR5 [1] = target: T1, WDR5 (Homo sapiens, UniProt P61964); assay: SPR binding of compounds to captured biotinylated WDR5, 1:1 steady-state affinity fit; conditions: for Kd: SPR; for LE (ligand efficiency): from SPR KD
T1 construct: hexahistidine-SUMO (N, cleaved yes); made in house; host or cells: E. coli BL21-CodonPlus-RIL
Procedure: SPR assay of small molecule binding used minimally biotinylated WDR5^23–334 protein captured on streptavidin-coated SPR chips. WDR5 (1 eq.) was mixed with freshly water-dissolved EZ-link Sulfo-NHS-LC-LC-biotin (0.8 eq., Thermofisher Scientific). The reaction mixture was incubated on ice for 2 h; unreacted biotin reagent was then removed from the mixture using size-exclusion chromatography on a Superdex 75 (10/300) column equilibrated in storage buffer (10 mM HEPES, 150 mM NaCl, 5 mM DTT).
(§1) SPR experiments were performed using a Biacore T200 or S200 biosensor with a CM5 chip (GE Healthcare). Streptavidin was coupled to the chip surface at 310 K in HBS-P+ running buffer (10 mM HEPES, pH 7.4, 150 mM NaCl, 0.05%[v/v] Tween-20) after a 10 min activation with a 1:1 mixture of NHS/EDC (N-hydroxysuccinimide/N-ethyl-N′-(3-[…])carbodiimide). Protein was diluted to 100 μg·ml^−1 at pH 4.5 (10 mM sodium acetate, 0.005%[v/v] Tween-20) and injected for 7 min. The surface was then blocked with 1 M ethanolamine, pH 8.0, for 7 min. Immobilization levels were typically 7000–13 000 RU, but as low as 1800 RU for compounds 55, 59, and Ac-ARV-NH2, where fitting uses a 1:1 kinetic model to determine dissociation rates. WDR5 capture was then performed over the streptavidin-coupled flow-cells at 293 K in HBS-P+ buffer with the addition of 5 mM DTT. Capture levels for fragment screening were ∼19 000 RU, while capture levels for subsequent testing were ∼9000 RU. The N-terminal domain of heat-shock protein 90 (Hsp90, UnprotKB P08238, residues 1–382) was captured (∼11 000 RU) during screening to provide an unrelated negative control surface, activity being monitored with intermittent ADP (adenosine diphosphate) injections. Biotin was subsequently injected over WDR5- and negative control protein-bound flow-cells to block remaining unbound streptavidin. SPR experiments were performed at 298 K in SPR running buffer containing 50 mM HEPES, 150 mM NaCl, 5 mM DTT, and 0.05%[v/v] Tween-20, 2%[v/v] DMSO. Initial fragments were screened at 100 μM. When performing dose-response testing, analytes were serially diluted (2- or 3-fold), injected for 30 s contact time, and allowed to dissociate for 30 s. The flow rate was 60 μl·min^−1. Binding sensorgrams were processed, solvent-corrected, and double-referenced using Scrubber software (BioLogic Software, Australia). […] Therefore, to determine binding affinities (KD values), responses at equilibrium for each analyte were fitted to a 1:1 steady-state affinity model available within Scrubber.

WDR5 [2] = target: T1, WDR5; assay: SPR 1:1 kinetic model to determine dissociation rates from WDR5; format: binding; conditions: for koff: read-out: kd (dissociation rate); for binding to WDR5: samples were mixtures of diastereomers
From the text: Compound 1 was identified as a highly ligand efficient hit that binds the phenylalanine clamp of the WIN site, approximating the arginine headgroup of the WIN motif. […] Two peptidomimetics, with 1 replacing the arginine, were synthesized. Compounds 55 and 59 are analogs of the Ac-ARV-NH2 and Ac-α-MeAla-RV-NH2 tripeptides,[21] respectively (Fig. 5). […] The hydroxymethyl imidazole thus appears to be a good replacement for the charged arginine residue in this context, and 59 may serve as a tool compound with more sensible physicochemical parameters than previous potent tripeptides. […] Binding constants of compounds 55 and 59 are thus difficult to derive. Instead, the (concentration independent) dissociation rates have been reported for 55 and 59 (kd = 0.067 s^−1 and 0.025 s^−1, respectively) to provide a more meaningful comparison to the analogous tripeptide Ac-ARV-NH2 (kd = 0.054 s^−1). […] However, if multiple diastereomers of 55/59 were indeed binding WDR5, it would not detract from the conclusion that hydroxymethyl imidazole-peptidomimetics have potential as WDR5 WIN-site inhibitors.
as §1

[3] = Table II, fragment core, mean ± SE (SE not reported where n = 1)
[4] = Table III, ether-derivatized 2, mean ± SE (SE not reported where n = 1)
[5] = Table IV, derivatives of 2, mean ± SE (SE not reported where n = 1)
[6] = 1:1 kinetic model, concentration independent, 55 and 59 tested as mixtures of diastereomers

CCCCc1ncc(CO)[nH]1 [Compound 1, (2-butyl-1H-imidazol-5-yl)methanol]
Kd (WDR5 [1]; [3]): 480 ± 30 µM
LE (ligand efficiency) (WDR5 [1]): 0.41 kcal·mol^−1·heavy atom^−1

Cc1nc(CO)c[nH]1 [Compound 2, (2-methyl-imidazol-4-yl)methanol]
Kd (WDR5 [1]; [3]): 260 ± 20 µM
Kd (WDR5 [1]; [4]): 260 ± 20 µM
LE (ligand efficiency) (WDR5 [1]): 0.61 kcal·mol^−1·heavy atom^−1

OCc1c[nH]cn1 [Compound 3]
Kd (WDR5 [1]): > 3000 µM
potency estimated from few doses (WDR5 [1]; Table II, estimated from single concentration (100 μM) screen, read-out: KD): > 3000 µM

Cc1cc(CO)n[nH]1 [Compound 4]
Kd (WDR5 [1]; [3]): > 3000 µM

OCc1ncc[nH]1 [Compound 5]
Kd (WDR5 [1]; [3]): > 3000 µM

Cc1ncc[nH]1 [Compound 6, 2-methyl imidazole]
Kd (WDR5 [1]; [3]): 2100 µM
LE (ligand efficiency) (WDR5 [1]): 0.60 kcal·mol^−1·heavy atom^−1

COCc1c[nH]c(C)n1 [Compound 7]
Kd (WDR5 [1]; [4]): > 3000 µM

CCCOCc1c[nH]c(C)n1 [Compound 8, 2-methyl-4-(propoxymethyl)-1H-imidazole]
Kd (WDR5 [1]; [4]): > 3000 µM

Cc1nc(COC(C)C)c[nH]1 [Compound 9, 4-(isopropoxymethyl)-2-methyl-1H-imidazole]
Kd (WDR5 [1]; [4]): > 3000 µM

Cc1nc(COCC(F)(F)F)c[nH]1 [Compound 10, 2-methyl-4-((2,2,2-trifluoroethoxy)methyl)-1H-imidazole]
Kd (WDR5 [1]; [4]): > 3000 µM

Cc1nc(COCc2ccccc2)c[nH]1 [Compound 11, 4-((benzyloxy)methyl)-2-methyl-1H-imidazole]
Kd (WDR5 [1]; [4]): 950 µM

OCc1c[nH]c(-c2ccccc2)n1 [Compound 13]
Kd (WDR5 [1]): 5200 µM
Kd (WDR5 [1]; [5]): > 3000 µM

OCc1c[nH]c(Cc2ccccc2)n1 [Compound 14, (2-benzyl-1H-imidazol-4-yl)methanol]
Kd (WDR5 [1]; [5]): 530 µM

OCc1c[nH]c(CCc2ccccc2)n1 [Compound 15, (2-phenethyl-1H-imidazol-4-yl)methanol]
Kd (WDR5 [1]; [5]): 300 ± 40 µM

OCc1c[nH]c(CCCc2ccccc2)n1 [Compound 16, (2-(3-phenylpropyl)-1H-imidazol-4-yl)methanol]
Kd (WDR5 [1]; [5]): 140 ± 30 µM
LE (ligand efficiency) (WDR5 [1]): 0.33 kcal·mol^−1·heavy atom^−1

COC(CCc1nc(CO)c[nH]1)c1ccccc1 (stereo not shown) [Compound 17, (2-(3-methoxy-3-phenylpropyl)-1H-imidazol-4-yl)methanol]
Kd (WDR5 [1]; [5]): 22 ± 6 µM
LE (ligand efficiency) (WDR5 [1]): 0.35 kcal·mol^−1·heavy atom^−1

CNC(=O)CCc1nc(CO)c[nH]1 [Compound 23, 3-(4-(hydroxymethyl)-1H-imidazol-2-yl)-N-methylpropanamide]
Kd (WDR5 [1]; [5]): 890 µM

CCOC(=O)CCc1nc(CO)c[nH]1 [Compound 24, ethyl 3-(4-(hydroxymethyl)-1H-imidazol-2-yl)propanoate]
Kd (WDR5 [1]; [5]): 240 ± 10 µM

NCCCCc1ncc(CO)[nH]1 [Compound 28, (2-(4-aminobutyl)-1H-imidazol-5-yl)methanol bis trifluoroacetic acid]
Kd (WDR5 [1]; [5]): 350 ± 40 µM

CC(=O)NCCCCc1ncc(CO)[nH]1 [Compound 29, N-(4-(5-(hydroxymethyl)-1H-imidazol-2-yl)butyl)acetamide trifluoroacetic acid]
Kd (WDR5 [1]; [5]): 200 ± 10 µM

O=C(NCCCCc1ncc(CO)[nH]1)c1ccccc1 [Compound 30, N-(4-(5-(hydroxymethyl)-1H-imidazol-2-yl)butyl)benzamide]
Kd (WDR5 [1]; [5]): 12 ± 1 µM

O=C(Cc1ccccc1)NCCCCc1ncc(CO)[nH]1 [Compound 31, N-(4-(5-(hydroxymethyl)-1H-imidazol-2-yl)butyl)-2-phenylacetamide trifluoroacetic acid]
Kd (WDR5 [1]; [5]): 25 ± 3 µM

COC(=O)NCCCCc1ncc(CO)[nH]1.O=C(O)C(F)(F)F [Compound 32, Methyl (4-(5-(hydroxymethyl)-1H-imidazol-2-yl)butyl)carbamate trifluoroacetic acid]
Kd (WDR5 [1]; [5]): 28.9 ± 0.5 µM
LE (ligand efficiency) (WDR5 [1]): 0.39 kcal·mol^−1·heavy atom^−1

O=C(NCCCCc1ncc(CO)[nH]1)OCc1ccccc1 [Compound 35, Benzyl (4-(5-(hydroxymethyl)-1H-imidazol-2-yl)butyl)carbamate trifluoroacetic acid]
Kd (WDR5 [1]; [5]): 11 ± 1 µM

COC(=O)N(CCCCc1ncc(CO)[nH]1)Cc1ccccc1 [Compound 37, Methyl benzyl(4-(5-(hydroxymethyl)-1H-imidazol-2-yl)butyl)carbamate trifluoroacetic acid]
Kd (WDR5 [1]; [5]): 4.5 ± 0.3 µM

COC(=O)N(CCCCc1nc(CO)c[nH]1)CC1CCNCC1 [Compound 40, Methyl (4-(4-(hydroxymethyl)-1H-imidazol-2-yl)butyl)(piperidin-4-ylmethyl)carbamate bis trifluoroacetic acid]
Kd (WDR5 [1]; [5]): 19 ± 3 µM

COC(=O)N(CCCCc1nc(CO)c[nH]1)Cc1ccc(=O)[nH]c1.O=C(O)C(F)(F)F [Compound 45, Methyl (4-(4-(hydroxymethyl)-1H-imidazol-2-yl)butyl)((6-oxo-1,6-dihydropyridin-3-yl)methyl)carbamate trifluoroacetic acid]
Kd (WDR5 [1]; [5]): 98.6 ± 0.6 µM
fold weaker binding than 37 (WDR5 [1]; ratio of SPR KD values): 20 fold

COC(=O)N(CCCCc1nc(CO)c[nH]1)Cc1cc[nH]c(=O)c1 [Compound 47, Methyl (4-(4-(hydroxymethyl)-1H-imidazol-2-yl)butyl)((2-oxo-1,2-dihydropyridin-4-yl)methyl)carbamate hydrochloride]
Kd (WDR5 [1]; [5]): 24.2 ± 0.2 µM

CC(=O)NC(C)C(=O)NC(CCCc1nc(CO)c[nH]1)C(=O)NC(C(N)=O)C(C)C (stereo not shown) [Compound 55, 2-(2-acetamidopropanamido)-N-(1-amino-3-methyl-1-oxobutan-2-yl)-5-(4-(hydroxymethyl)-1H-imidazol-2-yl)pentanamide]
koff (WDR5 [2]; [6]): 0.067 s⁻¹
binding to WDR5 (WDR5 [2]): Binding was observed

CC(=O)NC(C)(C)C(=O)NC(CCCc1nc(CO)c[nH]1)C(=O)NC(C(N)=O)C(C)C (stereo not shown) [Compound 59, 2-(2-acetamido-2-methylpropanamido)-N-(1-amino-3-methyl-1-oxobutan-2-yl)-5-(4-(hydroxymethyl)-1H-imidazol-2-yl)pentanamide]
koff (WDR5 [2]; [6]): 0.025 s⁻¹
binding to WDR5 (WDR5 [2]): Binding was observed

Ac-ARV-NH2 [reference compound]
kd (dissociation rate) (WDR5 [2]; [6]): 0.054 s⁻¹
